≈ marks a conversion by molar mass, not a printed value.
Tests used:
Test in all cases: ≥ marks a high value that may be exact or a test limit, other limits are often not marked, values filed in µg/mL are converted to µM
Escherichia coli K88 = system: Escherichia coli K88
Escherichia coli UB1005 = system: Escherichia coli UB1005
Escherichia coli K99 = system: Escherichia coli K99
[1] = system: Staphylococcus aureus ATCC 25923
[2] = system: Candida parapsilosis CGMCC 2.3989
[3] = system: Staphylococcus epidermidis ATCC 12228
[4] = system: Salmonella enterica subsp. enterica serovar Typhimurium ATCC 14028
[5] = system: Candida tropicalis CGMCC 2.1975
[6] = system: Salmonella enterica subsp. enterica serovar Typhimurium C77-31
[7] = system: Staphylococcus aureus ATCC 43300
[8] = system: Pseudomonas aeruginosa ATCC 27853
Escherichia coli 078 = system: Escherichia coli 078
[9] = system: Salmonella enterica subsp. enterica serovar Pullorum ATCC 7913
[10] = system: Enterococcus faecalis ATCC 29212
Klebsiella pneumoniae = system: Klebsiella pneumoniae
[11] = system: Escherichia coli ATCC 25922
[12] = system: Pseudomonas aeruginosa CMCCB 1010
Shigella dysenteriae = system: Shigella dysenteriae
Pseudomonas aeruginosa = system: Pseudomonas aeruginosa
[13] = system: Bordetella bronchiseptica CUN 11844-99
[14] = system: Staphylococcus xylosus DSM 20287
[15] = system: Franconibacter helveticus DSM 18390
[16] = system: Escherichia coli DSM 1116
[17] = system: Bacillus subtilis DSM 347
[18] = system: Escherichia coli DH5alpha
Staphylococcus xylosus = system: Staphylococcus xylosus

## CC[C@H](C)[C@H](NC(=O)[C@H](CCCN=C(N)N)NC(=O)[C@H](C)NC(=O)[C@H](C)N)C(=O)N[C@H](C(=O)N[C@@H](CC(C)C)C(=O)N[C@@H](CCCN=C(N)N)C(=O)N[C@@H](C)C(=O)N[C@@H](CCCN=C(N)N)C(=O)N[C@@H](Cc1ccccc1)C(=O)N[C@@H](CCCN=C(N)N)C(N)=O)[C@@H](C)CC [AARIILRARFR]
Escherichia coli K88
  MIC: 2 µM (≈ 2.68 µg/mL)
Escherichia coli UB1005
  MIC: 2 µM (≈ 2.68 µg/mL)
Escherichia coli K99
  MIC: 2 µM (≈ 2.68 µg/mL)
[1]
  MIC: 4 µM (≈ 5.37 µg/mL)
[2]
  MIC: 16 µM (≈ 21.5 µg/mL)
[3]
  MIC: 2 µM (≈ 2.68 µg/mL)
[4]
  MIC: 4 µM (≈ 5.37 µg/mL)
[5]
  MIC: 4 µM (≈ 5.37 µg/mL)
[6]
  MIC: 4 µM (≈ 5.37 µg/mL)
[7]
  MIC: 2 µM (≈ 2.68 µg/mL)
[8]
  MIC: 16 µM (≈ 21.5 µg/mL)
Escherichia coli 078
  MIC: 4 µM (≈ 5.37 µg/mL)
[9]
  MIC: 4 µM (≈ 5.37 µg/mL)

## CC[C@H](C)[C@H](NC(=O)[C@H](CCCN=C(N)N)NC(=O)[C@H](CC(C)C)NC(=O)[C@@H](NC(=O)[C@@H](NC(=O)[C@H](CCCN=C(N)N)NC(=O)[C@H](C)NC(=O)[C@H](C)N)[C@@H](C)CC)[C@@H](C)CC)C(=O)N[C@@H](CCCN=C(N)N)C(=O)N[C@@H](Cc1ccccc1)C(=O)N[C@@H](CCCN=C(N)N)C(N)=O [AARIILRIRFR]
Escherichia coli K88
  MIC: 2 µM (≈ 2.77 µg/mL)
Escherichia coli UB1005
  MIC: 4 µM (≈ 5.54 µg/mL)
Escherichia coli K99
  MIC: 4 µM (≈ 5.54 µg/mL)
[1]
  MIC: 2 µM (≈ 2.77 µg/mL)
[2]
  MIC: 4 µM (≈ 5.54 µg/mL)
[3]
  MIC: 2 µM (≈ 2.77 µg/mL)
[4]
  MIC: 2 µM (≈ 2.77 µg/mL)
[5]
  MIC: 4 µM (≈ 5.54 µg/mL)
[6]
  MIC: 4 µM (≈ 5.54 µg/mL)
[7]
  MIC: 2 µM (≈ 2.77 µg/mL)
[8]
  MIC: 16 µM (≈ 22.1 µg/mL)
Escherichia coli 078
  MIC: 2 µM (≈ 2.77 µg/mL)
[9]
  MIC: 2 µM (≈ 2.77 µg/mL)

## CC[C@H](C)[C@H](NC(=O)[C@H](CC(C)C)NC(=O)[C@@H](NC(=O)[C@@H](NC(=O)[C@H](C)NC(=O)[C@@H](NC(=O)[C@H](CC(N)=O)NC(=O)[C@H](CCCCN)NC(=O)[C@H](C)NC(=O)[C@@H](NC(=O)[C@H](CC(N)=O)NC(=O)[C@H](CCCCN)NC(=O)[C@H](C)NC(=O)[C@@H](NC(=O)[C@H](CC(=O)O)NC(=O)[C@H](CCSC)NC(=O)[C@H](Cc1ccccc1)NC(=O)CN)[C@@H](C)O)C(C)C)C(C)C)C(C)C)[C@@H](C)O)C(=O)N[C@@H](CC(=O)O)C(=O)N[C@@H](CCCCN)C(=O)N[C@@H](CC(C)C)C(=O)N[C@@H](CCCN=C(N)N)C(=O)N[C@H]1CSSC[C@@H](C(=O)O)NC(=O)CNC(=O)CNC(=O)[C@H]([C@@H](C)O)NC(=O)[C@H](C(C)C)NC(=O)[C@H](CCCCN)NC1=O [GFMDTAKNVAKNVAVTLIDKLRCKVTGGC]
[10]
  MIC: 20 µM (≈ 61 µg/mL)
Klebsiella pneumoniae
  MIC: 50 µM (≈ 153 µg/mL)
[1]
  MIC: 20 µM (≈ 61 µg/mL)
[11]
  MIC: 13 µM (≈ 39.7 µg/mL)
[12]
  MIC: 20 µM (≈ 61 µg/mL)
Shigella dysenteriae
  MIC: ≥ 50 µM
[8]
  MIC: 33 µM (≈ 101 µg/mL)
Pseudomonas aeruginosa
  MIC: 50 µM (≈ 153 µg/mL)

## NCCCC[C@H](NC(=O)[C@H](Cc1ccc(O)cc1)NC(=O)[C@H](CCCN=C(N)N)NC(=O)[C@H](CCCN=C(N)N)NC(=O)CN)C(=O)N[C@@H](CCCCN)C(=O)N[C@@H](Cc1ccccc1)C(=O)N[C@@H](CCCCN)C(=O)N[C@@H](Cc1c[nH]c2ccccc12)C(=O)N[C@@H](CCCN=C(N)N)C(=O)N[C@@H](Cc1ccccc1)C(=O)N[C@@H](CCCN=C(N)N)C(=O)NCC(=O)N[C@@H](CCCN=C(N)N)C(=O)N[C@@H](Cc1ccccc1)C(=O)N[C@@H](Cc1c[nH]c2ccccc12)C(=O)N[C@@H](Cc1ccccc1)C(=O)N[C@@H](Cc1c[nH]c2ccccc12)C(=O)NCC(N)=O [GRRYKKFKWRFRGRFWFWG]
[1]
  MIC: 12 µM (≈ 32 µg/mL)
[11]
  MIC: 24 µM (≈ 64 µg/mL)
[13]
  MIC: 6 µM (≈ 16 µg/mL)

## CC[C@H](C)[C@H](N)C(=O)N[C@@H](C)C(=O)NCC(=O)N[C@@H](CCCCN)C(=O)N[C@H](C(=O)N[C@@H](C)C(=O)N[C@@H](CCCCN)C(=O)N[C@H](C(=O)N[C@@H](C)C(=O)NCC(=O)N[C@@H](CCCCN)C(=O)N[C@H](C(=O)N[C@@H](C)C(=O)N[C@@H](CCCCN)C(=O)N[C@H](C(=O)N[C@@H](C)C(=O)NCC(=O)N[C@@H](CCCCN)C(=O)N[C@H](C(=O)N[C@@H](C)C(=O)N[C@@H](CCCCN)C(N)=O)[C@@H](C)CC)[C@@H](C)CC)[C@@H](C)CC)[C@@H](C)CC)[C@@H](C)CC [IAGKIAKIAGKIAKIAGKIAK]
[14]
  MIC: 1.37 µM (≈ 2.83 µg/mL)
[15]
  MIC: 1.37 µM (≈ 2.83 µg/mL)
[16]
  MIC: 1.94 µM (≈ 4 µg/mL)
[17]
  MIC: 1.37 µM (≈ 2.83 µg/mL)

## CC[C@H](C)[C@H](N)C(=O)N[C@@H](C)C(=O)N[C@@H](CCCCN)C(=O)N[C@H](C(=O)N[C@@H](C)C(=O)NCC(=O)N[C@@H](CCCCN)C(=O)N[C@H](C(=O)N[C@@H](C)C(=O)N[C@@H](CCCCN)C(=O)N[C@H](C(=O)N[C@@H](C)C(=O)NCC(=O)N[C@@H](CCCCN)C(=O)N[C@H](C(=O)N[C@@H](C)C(=O)N[C@@H](CCCCN)C(N)=O)[C@@H](C)CC)[C@@H](C)CC)[C@@H](C)CC)[C@@H](C)CC [IAKIAGKIAKIAGKIAK]
[14]
  MIC: ≥ 75.6 µM
[15]
  MIC: ≥ 53.4 µM
[16]
  MIC: ≥ 75.6 µM
[17]
  MIC: 9.44 µM (≈ 16 µg/mL)

## CC[C@H](C)[C@H](NC(=O)[C@H](CCCCN)NC(=O)CNC(=O)[C@H](C)NC(=O)[C@@H](NC(=O)[C@H](CCCCN)NC(=O)[C@H](C)NC(=O)[C@@H](NC(=O)[C@H](CCCCN)NC(=O)CNC(=O)[C@H](C)NC(=O)[C@@H](NC(=O)[C@H](CCCCN)NC(=O)[C@H](C)NC(=O)[C@@H](NC(=O)[C@H](CCCCN)NC(=O)CNC(=O)[C@H](C)NC(=O)[C@@H](NC(=O)[C@H](CCCCN)NC(=O)[C@H](C)NC(=O)[C@@H](NC(=O)[C@@H](N)CCCCN)[C@@H](C)CC)[C@@H](C)CC)[C@@H](C)CC)[C@@H](C)CC)[C@@H](C)CC)[C@@H](C)CC)C(=O)N[C@@H](C)C(N)=O [KIAKIAGKIAKIAGKIAKIAGKIA]
[14]
  MIC: 0.842 µM (≈ 2 µg/mL)
[15]
  MIC: 0.842 µM (≈ 2 µg/mL)
[16]
  MIC: 0.842 µM (≈ 2 µg/mL)
[17]
  MIC: 0.842 µM (≈ 2 µg/mL)

## CC[C@H](C)[C@H](NC(=O)[C@H](CCCCN)NC(=O)CNC(=O)[C@H](C)NC(=O)[C@@H](NC(=O)[C@H](CCCCN)NC(=O)[C@H](C)NC(=O)[C@@H](NC(=O)[C@H](CCCCN)NC(=O)CNC(=O)[C@H](C)NC(=O)[C@@H](NC(=O)[C@H](CCCCN)NC(=O)[C@H](C)NC(=O)[C@@H](NC(=O)[C@@H](N)CCCCN)[C@@H](C)CC)[C@@H](C)CC)[C@@H](C)CC)[C@@H](C)CC)C(=O)N[C@@H](C)C(N)=O [KIAKIAGKIAKIAGKIA]
[14]
  MIC: ≥ 37.8 µM
[15]
  MIC: 9.44 µM (≈ 16 µg/mL)
[16]
  MIC: 6.68 µM (≈ 11.3 µg/mL)
[17]
  MIC: 6.68 µM (≈ 11.3 µg/mL)

## CC[C@H](C)[C@H](NC(=O)[C@H](CCCCN)NC(=O)[C@H](CCCN=C(N)N)NC(=O)[C@@H](N)CCCCN)C(=O)N[C@@H](CCCCN)C(=O)N[C@@H](CCCN=C(N)N)C(=O)N[C@@H](CCCCN)C(=O)O [KRKIKRK]
[18]
  MIC: ≥ 64 µM
Staphylococcus xylosus
  MIC: ≥ 64 µM

## CC[C@H](C)[C@H](NC(=O)[C@H](CC(C)C)NC(=O)[C@H](CCCCN)NC(=O)[C@H](CCCN=C(N)N)NC(=O)[C@@H](N)CCCCN)C(=O)N[C@@H](CC(C)C)C(=O)N[C@@H](CCCCN)C(=O)N[C@@H](CCCN=C(N)N)C(=O)N[C@H](C(=O)N[C@@H](CC(C)C)C(=O)N[C@H](C(=O)N[C@@H](CCCCN)C(=O)N[C@@H](CCCN=C(N)N)C(=O)N[C@@H](CCCCN)C(=O)O)[C@@H](C)CC)[C@@H](C)CC [KRKLILKRILIKRK]
[18]
  MIC: 16 µM (≈ 28.9 µg/mL)
Staphylococcus xylosus
  MIC: 8 µM (≈ 14.5 µg/mL)

## CC(C)C[C@H](NC(=O)[C@H](CC(C)C)NC(=O)[C@H](CC(C)C)NC(=O)[C@H](CC(C)C)NC(=O)[C@H](CC(C)C)NC(=O)[C@H](CCCN=C(N)N)NC(=O)[C@H](CCCN=C(N)N)NC(=O)[C@@H](N)CCCN=C(N)N)C(=O)N[C@@H](CCCN=C(N)N)C(=O)N[C@@H](CCCN=C(N)N)C(=O)N[C@@H](CCCN=C(N)N)C(=O)O [RRRLLLLLRRR]
[18]
  MIC: 8 µM (≈ 12.2 µg/mL)
Staphylococcus xylosus
  MIC: 1 µM (≈ 1.52 µg/mL)

Source: DBAASP
